In patent publication US7781591B2, “Substituted 3-cyanopyridines as protein kinase inhibitors” (Wyeth LLC, priority 2006, dated 2010):

Target: T1, human PKCθ full length enzyme (Homo sapiens, UniProt Q04759)
T1 construct: human PKCθ full length enzyme (Panvera Cat# P2996); purchased Panvera P2996
Experiment: PKCθ IMAP assay (fluorescence polarization)
Format: biochemical
Conditions: human PKCθ full length enzyme, IMAP; average value; read-out: IC50 PKCθ IMAP

T1 sequence (Q04759 whole entry): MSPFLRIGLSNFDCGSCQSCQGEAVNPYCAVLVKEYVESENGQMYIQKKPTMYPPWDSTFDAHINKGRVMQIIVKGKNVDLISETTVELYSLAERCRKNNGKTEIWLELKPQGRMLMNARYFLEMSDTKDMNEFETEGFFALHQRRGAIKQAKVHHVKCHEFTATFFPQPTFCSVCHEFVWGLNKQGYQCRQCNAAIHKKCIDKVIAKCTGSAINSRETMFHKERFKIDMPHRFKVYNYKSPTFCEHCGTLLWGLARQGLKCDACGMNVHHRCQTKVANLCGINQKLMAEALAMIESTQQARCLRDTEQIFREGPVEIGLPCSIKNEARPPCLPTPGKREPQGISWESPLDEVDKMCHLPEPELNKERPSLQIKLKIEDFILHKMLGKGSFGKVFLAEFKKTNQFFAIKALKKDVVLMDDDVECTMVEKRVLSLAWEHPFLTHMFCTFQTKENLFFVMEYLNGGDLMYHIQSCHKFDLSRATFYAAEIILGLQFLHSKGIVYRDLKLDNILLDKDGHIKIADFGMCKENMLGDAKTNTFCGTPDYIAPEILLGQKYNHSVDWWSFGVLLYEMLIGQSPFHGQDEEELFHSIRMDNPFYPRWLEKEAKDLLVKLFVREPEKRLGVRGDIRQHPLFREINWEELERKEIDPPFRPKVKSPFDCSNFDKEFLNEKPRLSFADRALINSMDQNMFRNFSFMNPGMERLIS

SMILES	IC50 [nM]
COc1ccc(-c2cncc(C#N)c2NC[C@H]2CC[C@H](CN)CC2)cc1OC [Compound 441, 4-({[trans-4-(aminomethyl)cyclohexyl]methyl}amino)-5-(3,4-dimethoxyphenyl)nicotinonitrile]	529
COc1ccc(-c2cncc(C#N)c2NC[C@H]2CC[C@H](N)CC2)cc1OC [Compound 442, 4-{[(trans-4-aminocyclohexyl)methyl]amino}-5-(3,4-dimethoxyphenyl)nicotinonitrile]	1770
COc1ccc(-c2cncc(C#N)c2NCCC2CCNCC2)cc1OC [Compound 444, 5-(3,4-dimethoxyphenyl)-4-[(2-piperidin-4-ylethyl)amino]nicotinonitrile]	2460
COc1ccc(-c2cncc(C#N)c2NCC2CCNCC2)cc1OC [Compound 445, 5-(3,4-dimethoxyphenyl)-4-[(piperidin-4-ylmethyl)amino]nicotinonitrile]	20400
COc1ccc(-c2cncc(C#N)c2N[C@H]2CC[C@@H](N)CC2)cc1OC [Compound 446, 4-[(cis-4-aminocyclohexyl)amino]-5-(3,4-dimethoxyphenyl)nicotinonitrile]	4880
COc1ccc(-c2cncc(C#N)c2NCCC2CCN(C)CC2)cc1OC [Compound 447, 5-(3,4-dimethoxyphenyl)-4-{[2-(1-methylpiperidin-4-yl)ethyl]amino}nicotinonitrile]	1930
COc1ccc(-c2cncc(C#N)c2NCC2CCN(C)CC2)cc1OC [Compound 448, 5-(3,4-dimethoxyphenyl)-4-{[(1-methylpiperidin-4-yl)methyl]amino}nicotinonitrile]	14100
Cc1c(Nc2c(C#N)cncc2-c2ccc(CN(C)C)cc2)ccc2[nH]ccc12 [Compound 452, 5-{4-[(dimethylamino)methyl]phenyl}-4-[(4-methyl-1H-indol-5-yl)amino]nicotinonitrile]	8
Cc1c(Nc2c(C#N)cncc2-c2ccnc(CN3CCOCC3)c2)ccc2[nH]ccc12 [Compound 453, 4-[(4-methyl-1H-indol-5-yl)amino]-2′-(morpholin-4-ylmethyl)-3,4′-bipyridine-5-carbonitrile]	60
Cc1c(Nc2c(C#N)cncc2-c2cccc(CN(C)C)c2)ccc2[nH]ccc12 [Compound 457, 5-{3-[(dimethylamino)methyl]phenyl}-4-[(4-methyl-1H-indol-5-yl)amino]nicotinonitrile]	7
N#Cc1cncc(-c2ccc(OC[C@H](N)Cc3ccccc3)cc2)c1Nc1cccc2[nH]ccc12 [Compound 458, 5-(4-{[(2R)-2-amino-3-phenylpropyl]oxy}phenyl)-4-(1H-indol-4-ylamino)nicotinonitrile]	14
Cc1c(Nc2c(C#N)cncc2-c2cc3cc(CN4CCCCC4)ccc3o2)ccc2[nH]ccc12 [Compound 461, 4-[(4-methyl-1H-indol-5-yl)amino]-5-[5-(piperidin-1-ylmethyl)-1-benzofuran-2-yl]nicotinonitrile]	1
Cc1c(Nc2c(C#N)cncc2-c2cc3cc(C=O)ccc3o2)ccc2[nH]ccc12 [Compound 465, 5-(5-formyl-1-benzofuran-2-yl)-4-[(4-methyl-1H-indol-5-yl)amino]nicotinonitrile]	1
Cc1c(Nc2c(C#N)cncc2-c2oc3ccccc3c2C)ccc2[nH]ccc12 [Compound 466, 5-(3-methyl-1-benzofuran-2-yl)-4-[(4-methyl-1H-indol-5-yl)amino]nicotinonitrile]	17
Cc1c(Nc2c(C#N)cncc2-c2ccncc2)ccc2[nH]ccc12 [Compound 467, 4-[(4-methyl-1H-indol-5-yl)amino]-3,4′-bipyridine-5-carbonitrile]	36
Cc1c(Nc2c(C#N)cncc2-c2ccnc(Cl)c2)ccc2[nH]ccc12 [Compound 469, 2′-chloro-4-[(4-methyl-1H-indol-5-yl)amino]-3,4′-bipyridine-5-carbonitrile]	31
Cc1c(Nc2c(C#N)cncc2-c2cccnc2Cl)ccc2[nH]ccc12 [Compound 471, 2′-chloro-4-[(4-methyl-1H-indol-5-yl)amino]-3,3′-bipyridine-5-carbonitrile]	156
Cc1c(Nc2c(C#N)cncc2-c2ccc(OCCCN3CCOCC3)cc2)ccc2[nH]ccc12 [Compound 473, 4-[(4-methyl-1H-indol-5-yl)amino]-5-[4-(3-morpholin-4-ylpropoxy)phenyl]nicotinonitrile]	24
Cc1c(Nc2c(C#N)cncc2-c2ccc(OCCCN3CCCCC3)cc2)ccc2[nH]ccc12 [Compound 474, 4-[(4-methyl-1H-indol-5-yl)amino]-5-[4-(3-piperidin-1-ylpropoxy)phenyl]nicotinonitrile]	13
Cc1c(Nc2c(C#N)cncc2-c2ccc(OCCCN(C)C)cc2)ccc2[nH]ccc12 [Compound 475, 5-{4-[3-(dimethylamino)propoxy]phenyl}-4-[(4-methyl-1H-indol-5-yl)amino]nicotinonitrile]	9
COCCOc1ccc(-c2cncc(C#N)c2Nc2ccc3[nH]ccc3c2C)cc1OCCOC [Compound 477, 5-[3,4-bis(2-methoxyethoxy)phenyl]-4-[(4-methyl-1H-indol-5-yl)amino]nicotinonitrile]	72
COCCOc1ccc(-c2cncc(C#N)c2Nc2ccc3[nH]ccc3c2C)cc1OC [Compound 478, 5-[3-methoxy-4-(2-methoxyethoxy)phenyl]-4-[(4-methyl-1H-indol-5-yl)amino]nicotinonitrile]	11
Cc1c(Nc2c(C#N)cncc2-c2cc3cc(CO)ccc3o2)ccc2[nH]ccc12 [Compound 481, 5-[5-(hydroxymethyl)-1-benzofuran-2-yl]-4-[(4-methyl-1H-indol-5-yl)amino]nicotinonitrile]	0.21
COCCOc1ccc(-c2cncc(C#N)c2Nc2ccc3[nH]ccc3c2C)cc1 [Compound 482, 5-[4-(2-methoxyethoxy)phenyl]-4-[(4-methyl-1H-indol-5-yl)amino]nicotinonitrile]	11
COCCOc1cccc(-c2cncc(C#N)c2Nc2ccc3[nH]ccc3c2C)c1 [Compound 483, 5-[3-(2-methoxyethoxy)phenyl]-4-[(4-methyl-1H-indol-5-yl)amino]nicotinonitrile]	36
CN1CCN(Cc2ccc3oc(-c4cncc(C#N)c4Nc4ccc5[nH]ccc5c4)cc3c2)CC1 [Compound 485, 4-(1H-indol-5-ylamino)-5-{5-[(4-methylpiperazin-1-yl)methyl]-1-benzofuran-2-yl}nicotinonitrile]	5

Results, then the molecule that gave them:

IC50 [nM]	SMILES
5	Cc1c(Nc2c(C#N)cncc2-c2ccc(CN3CCN(C)CC3)cc2)ccc2[nH]ccc12 [Compound 449, 4-[(4-methyl-1H-indol-5-yl)amino]-5-{4-[(4-methylpiperazin-1-yl)methyl]phenyl}nicotinonitrile]
16	Cc1c(Nc2c(C#N)cncc2-c2ccc(CN3CCCC3)cc2)ccc2[nH]ccc12 [Compound 450, 4-[(4-methyl-1H-indol-5-yl)amino]-5-[4-(pyrrolidin-1-ylmethyl)phenyl]nicotinonitrile]
9	Cc1c(Nc2c(C#N)cncc2-c2ccc(CN3CCOCC3)cc2)ccc2[nH]ccc12 [Compound 451, 4-[(4-methyl-1H-indol-5-yl)amino]-5-[4-(morpholin-4-ylmethyl)phenyl]nicotinonitrile]
3	Cc1c(Nc2c(C#N)cncc2-c2cccc(CN3CCN(C)CC3)c2)ccc2[nH]ccc12 [Compound 454, 4-[(4-methyl-1H-indol-5-yl)amino]-5-{3-[(4-methylpiperazin-1-yl)methyl]phenyl}nicotinonitrile]
7	Cc1c(Nc2c(C#N)cncc2-c2cccc(CN3CCCC3)c2)ccc2[nH]ccc12 [Compound 455, 4-[(4-methyl-1H-indol-5-yl)amino]-5-[3-(pyrrolidin-1-ylmethyl)phenyl]nicotinonitrile]
23	Cc1c(Nc2c(C#N)cncc2-c2cccc(CN3CCOCC3)c2)ccc2[nH]ccc12 [Compound 456, 4-[(4-methyl-1H-indol-5-yl)amino]-5-[3-(morpholin-4-ylmethyl)phenyl]nicotinonitrile]
6	Cc1c(Nc2c(C#N)cncc2-c2ccc(CN3CCN(C)CC3)cc2F)ccc2[nH]ccc12 [Compound 459, 5-{2-fluoro-4-[(4-methylpiperazin-1-yl)methyl]phenyl}-4-[(4-methyl-1H-indol-5-yl)amino]nicotinonitrile]
0.2	Cc1c(Nc2c(C#N)cncc2-c2cc3cc(CN4CCN(C)CC4)ccc3o2)ccc2[nH]ccc12 [Compound 462, 4-[(4-methyl-1H-indol-5-yl)amino]-5-{5-[(4-methylpiperazin-1-yl)methyl]-1-benzofuran-2-yl}nicotinonitrile]
6	Cc1c(Nc2c(C#N)cncc2-c2ccc(CN3CCN(C)CC3)s2)ccc2[nH]ccc12 [Compound 464, 4-[(4-methyl-1H-indol-5-yl)amino]-5-{5-[(4-methylpiperazin-1-yl)methyl]-2-thienyl}nicotinonitrile]
4	Cc1c(Nc2c(C#N)cncc2-c2ccc(CN3CCN(C)CC3)o2)ccc2[nH]ccc12 [Compound 468, 4-[(4-methyl-1H-indol-5-yl)amino]-5-{5-[(4-methylpiperazin-1-yl)methyl]-2-furyl}nicotinonitrile]
107	Cc1c(Nc2c(C#N)cncc2-c2ccc(OCCN3CCN(C)CC3)cc2Cl)ccc2[nH]ccc12 [Compound 470, 5-{2-chloro-4-[2-(4-methylpiperazin-1-yl)ethoxy]phenyl}-4-[(4-methyl-1H-indol-5-yl)amino]nicotinonitrile]
19	Cc1c(Nc2c(C#N)cncc2-c2ccc(OCCCN3CCN(C)CC3)cc2)ccc2[nH]ccc12 [Compound 472, 4-[(4-methyl-1H-indol-5-yl)amino]-5-{4-[3-(4-methylpiperazin-1-yl)propoxy]phenyl}nicotinonitrile]
4	Cc1c(Nc2c(C#N)cncc2-c2ccc(CN3CCN(C4CCCC4)CC3)o2)ccc2[nH]ccc12 [Compound 486, 5-{5-[(4-cyclopentylpiperazin-1-yl)methyl]-2-furyl}-4-[(4-methyl-1H-indol-5-yl)amino]nicotinonitrile]
